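Grown in 96-well plates, cells were treated for 48 hours with each compound at five concentrations. Insufficient inhibition: endpoint recorded as highest concentration tested. Abbreviation: GI50, concentration required for 50% inhibition of growth.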 The source made the active and inactive calls. No stated cut-off is given here; in the data, active = GI50 up to about 1.1 µM and inactive = higher.
How the values were obtained:
Test in all cases: inhibition of tumour cell growth, NCI panel, 48 h
HCC 2998 = system: HCC 2998
U-251 = system: U-251
T47D = system: T47D
KM12 = system: KM12
SK-MEL-5 = system: SK-MEL-5
HOP-62 = system: HOP-62
SK-MEL-28 = system: SK-MEL-28
HT-29 = system: HT-29
BT-549 = system: BT-549
LOX IMVI = system: LOX IMVI
786-0 = system: 786-0
SNB-75 = system: SNB-75
OVCAR-3 = system: OVCAR-3
SF-295 = system: SF-295
IGROV-1 = system: IGROV-1
OVCAR-4 = system: OVCAR-4
SF-268 = system: SF-268
SNB-19 = system: SNB-19
SN12C = system: SN12C
NCI/ADR-RES = system: NCI/ADR-RES
DU-145 = system: DU-145
HOP-92 = system: HOP-92
Malme-3M = system: Malme-3M
CAKI-1 = system: CAKI-1
HCT-116 = system: HCT-116
MDA-N = system: MDA-N
CCRF-CEM = system: CCRF-CEM
UO-31 = system: UO-31
PC-3 = system: PC-3
OVCAR-5 = system: OVCAR-5
SR = system: SR
Hs-578T = system: Hs-578T
MCF7 = system: MCF7
A549 = system: A549
A498 = system: A498
SW-620 = system: SW-620
NCI-H23 = system: NCI-H23
OVCAR-8 = system: OVCAR-8
K562 = system: K562
HCT-15 = system: HCT-15
SK-OV-3 = system: SK-OV-3
COLO 205 = system: COLO 205
UACC-257 = system: UACC-257
NCI-H460 = system: NCI-H460
NCI-H522 = system: NCI-H522
NCI-H226 = system: NCI-H226
SF-539 = system: SF-539
RXF 393 = system: RXF 393
RPMI-8226 = system: RPMI-8226
M14 = system: M14
TK-10 = system: TK-10
MDA-MB-231 = system: MDA-MB-231
MOLT-4 = system: MOLT-4
UACC-62 = system: UACC-62
ACHN = system: ACHN
EKVX = system: EKVX
HL-60 = system: HL-60
MDA-MB-435 = system: MDA-MB-435
SK-MEL-2 = system: SK-MEL-2

## NS(=O)(=O)c1ccc(NC2(C(=O)O)CCCC2)cc1
HCC 2998
  GI50: > 100 µM (inactive)
U-251
  GI50: > 100 µM (inactive)
T47D
  GI50: > 100 µM (inactive)
KM12
  GI50: > 100 µM (inactive)
SK-MEL-5
  GI50: > 100 µM (inactive)
HOP-62
  GI50: > 100 µM (inactive)
SK-MEL-28
  GI50: > 100 µM (inactive)
HT-29
  GI50: > 100 µM (inactive)
BT-549
  GI50: > 100 µM (inactive)
LOX IMVI
  GI50: > 100 µM (inactive)
786-0
  GI50: > 100 µM (inactive)
SNB-75
  GI50: > 100 µM (inactive)
OVCAR-3
  GI50: > 100 µM (inactive)
SF-295
  GI50: > 100 µM (inactive)
IGROV-1
  GI50: > 100 µM (inactive)
OVCAR-4
  GI50: > 100 µM (inactive)
SF-268
  GI50: > 100 µM (inactive)
SNB-19
  GI50: > 100 µM (inactive)
SN12C
  GI50: > 100 µM (inactive)
NCI/ADR-RES
  GI50: > 100 µM (inactive)
DU-145
  GI50: > 100 µM (inactive)
HOP-92
  GI50: > 100 µM (inactive)
Malme-3M
  GI50: > 100 µM (inactive)
CAKI-1
  GI50: > 100 µM (inactive)
HCT-116
  GI50: > 100 µM (inactive)
MDA-N
  GI50: > 100 µM (inactive)
CCRF-CEM
  GI50: > 100 µM (inactive)
UO-31
  GI50: > 100 µM (inactive)
PC-3
  GI50: > 100 µM (inactive)
OVCAR-5
  GI50: > 100 µM (inactive)
SR
  GI50: > 100 µM (inactive)
Hs-578T
  GI50: > 100 µM (inactive)
MCF7
  GI50: > 100 µM (inactive)
A549
  GI50: > 100 µM (inactive)
A498
  GI50: > 100 µM (inactive)
SW-620
  GI50: > 100 µM (inactive)
NCI-H23
  GI50: > 100 µM (inactive)
OVCAR-8
  GI50: > 100 µM (inactive)
K562
  GI50: > 100 µM (inactive)
HCT-15
  GI50: > 100 µM
SK-OV-3
  GI50: > 100 µM (inactive)
COLO 205
  GI50: > 100 µM (inactive)
UACC-257
  GI50: > 100 µM (inactive)
NCI-H460
  GI50: > 100 µM (inactive)
NCI-H522
  GI50: > 100 µM (inactive)
NCI-H226
  GI50: > 100 µM (inactive)
SF-539
  GI50: > 100 µM (inactive)
RXF 393
  GI50: > 100 µM (inactive)
RPMI-8226
  GI50: > 100 µM (inactive)
M14
  GI50: > 100 µM (inactive)
TK-10
  GI50: > 100 µM (inactive)
MDA-MB-231
  GI50: > 100 µM (inactive)
MOLT-4
  GI50: > 100 µM (inactive)
UACC-62
  GI50: > 100 µM (inactive)
ACHN
  GI50: > 100 µM (inactive)
EKVX
  GI50: > 100 µM (inactive)
HL-60
  GI50: > 100 µM (inactive)
MDA-MB-435
  GI50: > 100 µM (inactive)
SK-MEL-2
  GI50: > 100 µM (inactive)

— ChEMBL document CHEMBL1201862, “PubChem BioAssay data set” (2004)
